Source: patent US9227971B2, “Pyrazolo[1,5-a]pyrimidine compounds as mTOR inhibitors” (Merck Sharp & Dohme Corp., priority 2010, dated 2016)
Where two headings read alike, the source gives them in different places.

Columns and labels:
[1] = tested on: phosphorylated AKT Ser473 (pAKT S473), mTORC2 activity, PC3 cells; test: mTOR target engagement assay, immunofluorescent cell-based, pAKT S473 readout (mTORC2 activity)
How it was run: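 After blocking, cells were stained overnight at 4 °C with anti-pAKT S473 antibody, then a fluorescent secondary; inhibition was read as reduced fluorescence intensity.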

[2] = tested on: phosphorylated 4E-BP1 Thr37/46 (p4E-BP1 Thr37/46), mTORC1 activity, PC3 cells; test: mTOR target engagement assay, immunofluorescent cell-based, p4E-BP1 Thr37/46 readout (mTORC1 activity); details: read-out: p4E-BP1 Thr37/46 IC50
How it was run: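 Seed PC3 cells overnight; treat with compound dilutions for ninety minutes at 37° C; fix with glyoxal and block; stain with anti-p4E-BP1 Thr37/46 overnight at 4° C, then fluorescent secondary; read fluorescence and fit IC50 against DMSO-only controls.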

[3] = Homo sapiens, PC-3, PC3 cells, compound treatment ninety minutes at 37° C.
[4] = Homo sapiens, PC-3, Table 3-1, PC3 cells
[5] = Homo sapiens, PC-3, Table 6-1, PC3 cells

In the case of `CC(=O)c1c([C@@H]2C[C@H]3CC[C@@H](C2)N3C(=O)C(N)=O)nc2c(-c3ccc(-c4ccccc4)nc3)cnn2c1N` [Compound 1.1.118, 2-((1R,3s,5S)-3-(6-acetyl-7-amino-3-(6-phenylpyridin-3-yl)pyrazolo[1,5-a]pyrimidin-5-yl)-8-azabicyclo[3.2.1]octan-8-yl)-2-oxoacetamide], the IC50 [1, 3] is reported as 100 to 1000 nM and the IC50 [2, 3] is reported as 100 to 1000 nM.

Compound `CS(=O)(=O)c1c([C@@H]2C[C@H]3CC[C@@H](C2)N3C#N)nc2c(-c3ccc(-c4ccccc4)nc3)cnn2c1N` [Compound 8.70, (1R,3s,5S)-3-(7-amino-6-(methylsulfonyl)-3-(6-phenylpyridin-3-yl)pyrazolo[1,5-a]pyrimidin-5-yl)-8-azabicyclo[3.2.1]octane-8-carbonitrile] has an IC50 ([1]; Homo sapiens, PC-3, PC3 cells) of 100 to 1000 nM and an IC50 ([2]; Homo sapiens, PC-3, PC3 cells) of 1000 to 10000 nM.

Work on `CC1(O)CCCc2cc(-c3cnn4c(N)c(C5CC5)c([C@H]5CC6CC[C@H](C5)N6C(=O)c5nnc[nH]5)nc34)cnc21` (stereo partly drawn) [Compound 7.55, ((1R,3s,5S)-3-(7-amino-6-cyclopropyl-3-(8-hydroxy-8-methyl-5,6,7,8-tetrahydroquinolin-3-yl)pyrazolo[1,5-a]pyrimidin-5-yl)-8-azabicyclo[3.2.1]octan-8-yl)(4H-1,2,4-triazol-3-yl)methanone] yielded an IC50 ([1]; Homo sapiens, PC-3, PC3 cells) of 100 to 1000 nM and an IC50 ([2]; Homo sapiens, PC-3, PC3 cells) of 100 to 1000 nM.

Compound `Cc1csc(-c2ccc(-c3cnn4c(N)c(S(C)(=O)=O)c([C@@H]5C[C@H]6CC[C@@H](C5)N6C(=O)c5nnc(C)[nH]5)nc34)cn2)n1` [Compound 3.191, ((1R,3s,5S)-3-(7-amino-6-(methylsulfonyl)-3-(6-(4-methylthiazol-2-yl)pyridin-3-yl)pyrazolo[1,5-a]pyrimidin-5-yl)-8-azabicyclo[3.2.1]octan-8-yl)(5-methyl-4H-1,2,4-triazol-3-yl)methanone] has an IC50 [1, 4] of 100 to 1000 nM and an IC50 [2, 4] of 100 to 1000 nM.

Work on `CC(=O)c1c([C@@H]2C[C@H]3CC[C@@H](C2)N3C(=O)c2cc(N)n[nH]2)nc2c(-c3ccc(-c4ccc(F)cc4)nc3)cnn2c1N` [Compound 1.1.156, 1-(7-amino-5-((1R,3s,5S)-8-(3-amino-1H-pyrazole-5-carbonyl)-8-azabicyclo[3.2.1]octan-3-yl)-3-(6-(4-fluorophenyl)pyridin-3-yl)pyrazolo[1,5-a]pyrimidin-6-yl)ethanone] yielded an IC50 [1, 3] of 1 to 100 nM and an IC50 [2, 3] of 1 to 100 nM.

`COc1ccc(-c2ccc(-c3cnn4c(N)c(Br)c([C@@H]5C[C@H]6CC[C@@H](C5)N6C(=O)[C@@H](C)O)nc34)cn2)cc1CO` [Compound 2.3, (R)-1-((1R,3S,5S)-3-(7-amino-6-bromo-3-(6-(3-(hydroxymethyl)-4-methoxyphenyl)pyridin-3-yl)pyrazolo[1,5-a]pyrimidin-5-yl)-8-azabicyclo[3.2.1]octan-8-yl)-2-hydroxypropan-1-one] was tested, and the IC50 [1, 3] was 1 to 100 nM and the IC50 [2, 3] was 1 to 100 nM.

In the case of `COc1ccc(-c2ccc(-c3cnn4c(N)c(C(C)=O)c([C@@H]5C[C@H]6CC[C@@H](C5)N6C(=O)CO)nc34)cn2)cc1CO` [Compound 1.1.36, 1-((1R,3s,5S)-3-(6-acetyl-7-amino-3-(6-(3-(hydroxymethyl)-4-methoxyphenyl)pyridin-3-yl)pyrazolo[1,5-a]pyrimidin-5-yl)-8-azabicyclo[3.2.1]octan-8-yl)-2-hydroxyethanone], the IC50 [1, 3] is reported as 1 to 100 nM and the IC50 [2, 3] is reported as 1 to 100 nM.

`CCOC(=O)Nc1ccc(-c2cnn3c(N)c(C(C)=O)c([C@@H]4C[C@H]5CC[C@@H](C4)N5C(=O)c4ncn[nH]4)nc23)cn1` [Compound 8.78, ethyl 5-(5-((1R,3s,5S)-8-(1H-1,2,4-triazole-5-carbonyl)-8-azabicyclo[3.2.1]octan-3-yl)-6-acetyl-7-aminopyrazolo[1,5-a]pyrimidin-3-yl)pyridin-2-ylcarbamate] gave an IC50 ([1]; Homo sapiens, PC-3, PC3 cells) of 1 to 100 nM and an IC50 ([2]; Homo sapiens, PC-3, PC3 cells) of 1 to 100 nM.

In the case of `CC(=O)c1c([C@@H]2C[C@H]3CC[C@@H](C2)N3C(=O)c2nnc[nH]2)nc2c(-c3ccc(-c4cc[nH]n4)nc3)cnn2c1N` [Compound 1.1.74, 1-(3-(6-(1H-pyrazol-3-yl)pyridin-3-yl)-5-((1R,3s,5S)-8-(4H-1,2,4-triazole-3-carbonyl)-8-azabicyclo[3.2.1]octan-3-yl)-7-aminopyrazolo[1,5-a]pyrimidin-6-yl)ethanone], the IC50 [1, 3] is reported as 1 to 100 nM and the IC50 [2, 3] is reported as 1 to 100 nM.

With `COCCOc1ccc(-c2ccc(-c3cnn4c(N)c(S(C)(=O)=O)c([C@@H]5C[C@H]6CC[C@@H](C5)N6C(=O)c5nnc[nH]5)nc34)cn2)cc1` [Compound 3.56, ((1R,3s,5S)-3-(7-amino-3-(6-(4-(2-methoxyethoxy)phenyl)pyridin-3-yl)-6-(methylsulfonyl)pyrazolo[1,5-a]pyrimidin-5-yl)-8-azabicyclo[3.2.1]octan-8-yl)(4H-1,2,4-triazol-3-yl)methanone] the IC50 [1, 4] was 100 to 1000 nM and the IC50 [2, 4] was 100 to 1000 nM.

`CC(=O)c1c([C@@H]2C[C@H]3CC[C@@H](C2)N3C(C)=O)nc2c(-c3ccc(-c4ncc[nH]4)nc3)cnn2c1N` [Compound 6.18, 1-(3-(6-(1H-imidazol-2-yl)pyridin-3-yl)-5-((1R,3s,5S)-8-acetyl-8-azabicyclo[3.2.1]octan-3-yl)-7-aminopyrazolo[1,5-a]pyrimidin-6-yl)ethanone] was tested, and the IC50 [1, 5] was 1 to 100 nM and the IC50 [2, 5] was 1 to 100 nM.

With `CC(=O)c1c([C@@H]2C[C@H]3CC[C@@H](C2)N3C(=O)c2nnc[nH]2)nc2c(-c3ccc([C@H](C)O)cc3)cnn2c1N` [Compound 7.22, 1-(5-((1R,3s,5S)-8-(4H-1,2,4-triazole-3-carbonyl)-8-azabicyclo[3.2.1]octan-3-yl)-7-amino-3-(4-((S)-1-hydroxyethyl)phenyl)pyrazolo[1,5-a]pyrimidin-6-yl)ethanone] the IC50 [1, 3] was 1 to 100 nM and the IC50 [2, 3] was 1 to 100 nM.

`Nc1c(C2CC2)c([C@@H]2C[C@H]3CC[C@@H](C2)N3C(=O)c2nnc[nH]2)nc2c(-c3ccc(-c4ccccc4)nc3)cnn12` [Compound 4.1, ((1R,3a,5S)-3-(7-amino-6-cyclopropyl-3-(6-phenylpyridin-3-yl)pyrazolo[1,5-a]pyrimidin-5-yl)-8-azabicyclo[3.2.1]octan-8-yl)(4H-1,2,4-triazol-3-yl)methanone] showed an IC50 [1, 3] of 1 to 100 nM and an IC50 [2, 3] of 1 to 100 nM.

Work on `Nc1c(C2CC2)c(C2CC3CCC(C2)N3C(=O)c2nnc(O)[nH]2)nc2c(-c3ccc(-c4ccccc4)nc3)cnn12` [Compound 8.106, ((1R,3s,5S)-3-(7-amino-6-cyclopropyl-3-(6-phenylpyridin-3-yl)pyrazolo[1,5-a]pyrimidin-5-yl)-8-azabicyclo[3.2.1]octan-8-yl)(5-hydroxy-4H-1,2,4-triazol-3-yl)methanone] yielded an IC50 ([1]; Homo sapiens, PC-3, PC3 cells) of 1 to 100 nM and an IC50 ([2]; Homo sapiens, PC-3, PC3 cells) of 1 to 100 nM.

`[2H]C([2H])([2H])Oc1ccc(-c2ccc(-c3cnn4c(N)c(C(C)=O)c([C@@H]5C[C@H]6CC[C@@H](C5)N6C(=O)c5nnc[nH]5)nc34)cn2)cc1` [Compound 1.1.77, 1-(5-((1R,3s,5S)-8-(4H-1,2,4-triazole-3-carbonyl)-8-azabicyclo[3.2.1]octan-3-yl)-7-amino-3-(6-(4-methoxy-(D3)-phenyl)pyridin-3-yl)pyrazolo[1,5-a]pyrimidin-6-yl)ethanone] showed an IC50 [1, 3] of 1 to 100 nM and an IC50 [2, 3] of 1 to 100 nM.

`CC(=O)c1c([C@@H]2C[C@H]3CC[C@@H](C2)N3C(=O)Cc2nnn[nH]2)nc2c(-c3ccc(-c4ccccc4)nc3)cnn2c1N` [Compound 1.1.20, 1-((1R,3s,5S)-3-(6-acetyl-7-amino-3-(6-phenylpyridin-3-yl)pyrazolo[1,5-a]pyrimidin-5-yl)-8-azabicyclo[3.2.1]octan-8-yl)-2-(1H-tetrazol-5-yl)ethanone] gave an IC50 [1, 3] of 100 to 1000 nM and an IC50 [2, 3] of 1000 to 10000 nM.

With `CC(=O)c1c([C@@H]2C[C@H]3CC[C@@H](C2)N3C(=O)CO)nc2c(-c3ccc(-c4ncc(C)[nH]4)nc3)cnn2c1N` [Compound 6.26, 1-((1R,3s,5S)-3-(6-acetyl-7-amino-3-(6-(5-methyl-1H-imidazol-2-yl)pyridin-3-yl)pyrazolo[1,5-a]pyrimidin-5-yl)-8-azabicyclo[3.2.1]octan-8-yl)-2-hydroxyethanone] the IC50 [1, 5] was 1 to 100 nM and the IC50 [2, 5] was 1 to 100 nM.

`CS(=O)(=O)c1c([C@@H]2C[C@H]3CC[C@@H](C2)N3C(=O)CO)nc2c(-c3ccc(-c4ccccc4)nc3)cnn2c1N` [Compound 3.1, 1-((1R,3s,5S)-3-(7-amino-6-(methylsulfonyl)-3-(6-phenylpyridin-3-yl)pyrazolo[1,5-a]pyrimidin-5-yl)-8-azabicyclo[3.2.1]octan-8-yl)-2-hydroxyethanone] gave an IC50 [1, 4] of 1 to 100 nM and an IC50 [2, 4] of 100 to 1000 nM.

With `CC(=O)c1c([C@@H]2C[C@H]3CC[C@@H](C2)N3C(=O)c2nnc[nH]2)nc2c(-c3cnc4c(c3)CCCC4O)cnn2c1N` (stereo partly drawn) [Compound 7.59, 1-(5-((1R,3s,5S)-8-(4H-1,2,4-triazole-3-carbonyl)-8-azabicyclo[3.2.1]octan-3-yl)-7-amino-3-(8-hydroxy-5,6,7,8-tetrahydroquinolin-3-yl)pyrazolo[1,5-a]pyrimidin-6-yl)ethanone] the IC50 ([1]; PC3 cells) was 100 to 1000 nM and the IC50 ([2]; PC3 cells) was 1 to 100 nM.

`[2H]C1(O)CCCc2cc(-c3cnn4c(N)c(C5CC5)c([C@H]5CC6CC[C@H](C5)N6C(=O)c5nnc[nH]5)nc34)cnc21` (stereo partly drawn) [Compound 7.56, DEUTERATED-(3- EXO)-3-[7-AMINO-6- CYCLOPROPYL-3- (5,6,7,8- TETRAHYDRO-8- HYDROXY-3- QUINOLINYL- (D))PYRAZOLO[1,5- a]PYRIMIDIN-5-YL]-8- (4H-1,2,4-TRIAZOL-3- YLCARBONYL)-8- AZABICYCLO[3.2.1] OCTANE] was tested, and the IC50 ([1]; Homo sapiens, PC-3, PC3 cells) was 1 to 100 nM and the IC50 ([2]; Homo sapiens, PC-3, PC3 cells) was 1 to 100 nM.
